Our source for the MIC values is paper PMC11763264, “Antibacterial and Antifungal Activities of Linear and Cyclic Peptides Containing Arginine, Tryptophan, and Diphenylalanine” (Antibiotics, 2025).

Assay in all cases: microbe, parasite or virus in culture
For assay [1], the system named is C. parapsilosis (ATCC 22019). It counts as cell-based, Candida parapsilosis. The procedure:
(§1) The antifungal activity of all ten synthesized linear and cyclic peptides was evaluated against C. albicans (ATCC 60193), C. parapsilosis (ATCC 22019), and A. fumigatus (AF-293). Fluconazole and amphotericin B were used as positive controls for this study. The MIC was determined at concentrations in wells with no visible fungal growth.
(§2) In this study, C. albicans and C. parapsilosis were cultured on Yeast Peptone Dextrose (YPD) agar containing 1% w/v yeast extract, 2% w/v peptone, 2% w/v D-glucose, and 1.5% agar. A single colony from the agar was selected and cultured in Tryptone soy broth supplemented with 0.1% D-glucose, then incubated for 24 h at 37 °C. The cells were washed twice with PBS by centrifugation at 2000 RPM for 5 min. The pellet was resuspended in 5 mL of PBS, diluted in RPMI 1640 with L-glutamine, supplemented with 2% D-glucose, and the pH adjusted using HEPES buffer. The suspension was then incubated for 50 min at 35 °C to achieve a final cell concentration of 10^6 cells/mL.
(§3) Peptide concentrations of 50, 25, 12.5, 6.25, and 3.1 μg/mL were tested in triplicate and repeated twice. Each well of a 96-well plate was inoculated with the prepared inoculum suspension, which was diluted with RPMI media to a final volume of 200 μL per well. The control well received the same inoculum without any compound. The plates were incubated for 24 h at 37 °C. Fungal and microbial growth were visually observed in the control wells, and the minimum inhibitory concentration (MIC) was determined as the lowest concentration at which no growth was detected in the wells. Amphotericin B was used as a standard antifungal drug.

Assay [2] concerns C. albicans (ATCC 60193). It counts as cell-based, Candida albicans. The method, then: as §1, §2, §3
In assay [3] the test system is A. fumigatus (Af-293). It counts as cell-based, Aspergillus fumigatus. To be noted: RPMI 1640 with 2% D-glucose, HEPES, 10^6 cells/mL, 24 and 48 h at 35 °C, no visible growth, triplicates, repeated twice. The procedure:
as §1
A. fumigatus (Af-293) was cultured on Sabouraud dextrose agar (SDA) (Lot #3431660, Oxoid) for 48–72 h at 35 °C to obtain fresh and mature colonies which reached the proper sporulation then used to prepare the inoculum. The colonies were covered with Phosphate-Buffered Saline (PBS) containing 0.025% Tween-20, scraped from the plate, and carefully collected into a sterile tube. The suspension was centrifuged at 3000 RPM for 5 min after the separation between conidia and hyphae. The supernatant was discarded, and the pellet was resuspended in 5 mL of PBS.
Peptide concentrations of 50, 25, 12.5, 6.25, and 3.1 μg/mL were tested in triplicate. Each well of a 96-well plate was inoculated with the prepared inoculum suspension, which was diluted with RPMI 1640 medium containing L-glutamine, supplemented with 2% D-glucose, and the pH adjusted using HEPES buffer. The plates were incubated for 50 min at 35 °C to achieve a final cell concentration of 10^6 cells/mL. The control wells contained the same inoculum without any compound. The plates were then incubated for 24 and 48 h at 35 °C. Fungal growth was visualized, and the minimum inhibitory concentration (MIC) was determined as the lowest peptide concentration, where no growth was observed.

The test system of assay [4] is P. aeruginosa (ATCC 27883). It counts as cell-based, Pseudomonas aeruginosa. To be noted: ATCC 27883, 24 h. The method, then:
(§4) The antibacterial activity of all ten synthesized linear and cyclic peptides was evaluated against MRSA (ATCC BAA-1556), S. aureus (ATCC 29213), E. faecium (ATCC 700221), S. pneumoniae (ATCC 51938), E. faecalis (ATCC 29212), B. subtilis (ATCC-6633), K. pneumoniae (ATCC BAA-1705), P. aeruginosa (ATCC 27883), and E. coli (ATCC 25922). Meropenem and daptomycin were used as positive controls for this study. Certain peptides are marked as “NT” (not tested) against specific bacterial strains based on initial screening data. […] The MIC was determined by micro-broth dilution protocol, where the minimal concentrations were determined to be in wells with no visible bacterial growth.
(§5) All bacterial experiments were carried out in a laminar flow hood (Labconco, Kansas City, MO, USA). The bacterial strains were cultured following the guidelines set by the Clinical Laboratory Standards Institute (CLSI). Antibacterial assays were performed using a standard microtiter dilution method as described in previous studies. The minimum inhibitory concentration (MIC) refers to the lowest peptide concentration that inhibits bacterial growth in wells with no visible bacterial growth. MIC was determined by micro-broth dilution. Bacteria were cultured overnight in 6 mL of Luria Broth (LB). A stock solution of the peptide was prepared in water and DMSO, and a test compound solution with a concentration of 256 µg/mL was made in LB. Meropenem, with a solubility of 8 mg/mL, was prepared as a stock solution at 4 mg/500 µL. An aliquot of the overnight bacteria culture was diluted in normal saline (NS, 1 mL) until achieving a 0.5 McFarland turbidity (1.5 × 10^8 bacterial cell CFU/mL). A 0.5 McFarland compared solution (60 µL) was added to Mueller Hinton Broth (MH) 8940 µL to generate a 1/150 dilution. A 200 µL test compound solution was added to the first well of a 96-well plate, and the remaining wells (2–12) were filled with 100 µL of MH media using a multi-channel pipette from a sterile reservoir. A concentration of […] of the tested peptides was prepared from a stock solution of the samples for testing in Muller−Hinton broth MH media. Peptides stock solution was dissolved in 5% DMSO in water, and the final concentration of DMSO in the first well of assay plate was 2.5% DMSO/H2O and diluted across the assay plate.
(§6) A 100 µL sample from well 1 was pipetted into well 2, and the solution was mixed thoroughly by pipetting up and down. Next, 100 µL was transferred from well 2 to well 3, followed by thorough mixing. This 2-fold serial dilution process continued through well 11, with no additions made to well 12. The final 100 µL from well 11 was discarded. After completing the serial dilution, each well (1–12) contained 100 µL of solution. The bacterial culture in MH media was vortexed and transferred to a sterile reservoir, from which 100 µL was added to each well using a 12-channel pipette. (Note: The dilutions were further diluted upon adding the bacterial solution; for example, the concentration in well 1 started at […] after the addition of the bacterial culture.) The plates were incubated overnight at 37 °C for 24 h. All experiments were performed in triplicate and repeated twice, with controls consisting of bacteria in MH media and positive controls of daptomycin or meropenem.

For assay [5], the system named is E. coli (ATCC 25922). It counts as cell-based, Escherichia coli. The conditions noted are these: ATCC 25922, 24 h. The procedure:
as §4, §5, §6

Assay [6] has as its system K. pneumoniae (ATCC BAA-1705). In kind it is cell-based, Klebsiella pneumoniae. The conditions noted are these: ATCC BAA-1705, 24 h. The method, then:
as §4, §5, §6

Assay [7] has as its system MRSA (ATCC BAA-1556). In kind it is cell-based, Methicillin-Resistant Staphylococcus aureus. The conditions noted are these: ATCC BAA-1556, 24 h. The procedure:
as §4, §5, §6

[8] abbreviates: Lodderomyces parapsilosis, ATCC22019, RPMI 1640 with 2% D-glucose, HEPES, 10^6 cells/mL, 24 h at 37 °C, no visible growth, triplicates, repeated twice.
Where [9] appears, read: Candida albicans, ATCC60193, RPMI 1640 with 2% D-glucose, HEPES, 10^6 cells/mL, 24 h at 37 °C, no visible growth, triplicates, repeated twice.

≈ marks a conversion by molar mass, not a printed value. Non-standard residues stand in square brackets, D forms with d. Residues, ends and D or L forms follow the SMILES beside them. Dip = N[C@H](C(=O)O)C(c1ccccc1)c1ccccc1 Where only a bound is given, the exact number is not on record here.

Turning to `C[C@@H]1[C@H](O)[C@@H](C)/C=C/C=C/C=C/C=C/C=C/C=C/C=C/[C@H](O[C@@H]2O[C@H](C)[C@@H](O)[C@H](N)[C@@H]2O)C[C@@H]2O[C@](O)(C[C@@H](O)C[C@@H](O)[C@H](O)CC[C@@H](O)C[C@@H](O)CC(=O)O[C@H]1C)C[C@H](O)[C@H]2C(=O)O` [Amphotericin B, reference compound], the results for the MIC in assay [1] (setting [8]), in assay [2] (setting [9]) and in assay [3] (Aspergillus fumigatus) were 0.42 µM (≈ 0.388 µg/mL), 0.42 µM (≈ 0.388 µg/mL) and 0.84 µM (≈ 0.776 µg/mL), respectively.
On to `OC(Cn1cncn1)(Cn1cncn1)c1ccc(F)cc1F` [Fluconazole, reference compound], for which the MIC was 3.3 µM (≈ 1.01 µg/mL) in assay [1] (setting [8]), 4.9 µM (≈ 1.5 µg/mL) in assay [2] (setting [9]), over 209 µM in assay [3] (Aspergillus fumigatus) and over 209 µM in assay [3].
As for `N=C(N)NCCC[C@@H]1NC(=O)[C@H](Cc2c[nH]c3ccccc23)NC(=O)[C@H](CCCNC(=N)N)NC(=O)[C@H](Cc2c[nH]c3ccccc23)NC(=O)[C@H](CCCNC(=N)N)NC(=O)[C@H](C(c2ccccc2)c2ccccc2)NC(=O)[C@H](CCCNC(=N)N)NC(=O)[C@H](C(c2ccccc2)c2ccccc2)NC(=O)[C@H](CCCNC(=N)N)NC(=O)[C@H](Cc2c[nH]c3ccccc23)NC1=O` [[(DipR)2(WR)3]] (cyclo([Dip]R[Dip]RWRWRWR)), the MIC in assay [1] (ATCC 22019, 24 h) is listed as 7.0 µM (≈ 12.5 µg/mL); in assay [4] it was 25 µM (≈ 44.7 µg/mL); in assay [5], 12.5 µM (≈ 22.3 µg/mL); in assay [6] it was 12.5 µM (≈ 22.3 µg/mL); in assay [2] (ATCC 60193, 24 h) it was 7.0 µM (≈ 12.5 µg/mL); in assay [7] it was 3.1 µM (≈ 5.54 µg/mL). In assay [3], this compound came in with an MIC of 1.7 µM (≈ 3.04 µg/mL).
For `N=C(N)NCCC[C@@H]1NC(=O)[C@H](Cc2c[nH]c3ccccc23)NC(=O)[C@H](CCCNC(=N)N)NC(=O)[C@H](C(c2ccccc2)c2ccccc2)NC(=O)[C@H](CCCNC(=N)N)NC(=O)[C@H](C(c2ccccc2)c2ccccc2)NC(=O)[C@H](CCCNC(=N)N)NC(=O)[C@H](C(c2ccccc2)c2ccccc2)NC(=O)[C@H](CCCNC(=N)N)NC(=O)[C@H](Cc2c[nH]c3ccccc23)NC1=O` [[(DipR)3(WR)2]] (cyclo([Dip]R[Dip]R[Dip]RWRWR)), the MIC is reported as 6.8 µM (≈ 12.4 µg/mL) in assay [1] (ATCC 22019, 24 h); 25 µM (≈ 45.6 µg/mL) in assay [4]; 12.5 µM (≈ 22.8 µg/mL) in assay [5]; 12.5 µM (≈ 22.8 µg/mL) in assay [6]; 6.8 µM (≈ 12.4 µg/mL) in assay [2] (ATCC 60193, 24 h); 3.1 µM (≈ 5.65 µg/mL) in assay [7]. Moreover, the MIC in assay [3] amounted to 1.7 µM (≈ 3.1 µg/mL).
For the compound `N=C(N)NCCC[C@@H]1NC(=O)[C@H](Cc2c[nH]c3ccccc23)NC(=O)[C@H](CCCNC(=N)N)NC(=O)[C@H](C(c2ccccc2)c2ccccc2)NC(=O)[C@H](CCCNC(=N)N)NC(=O)[C@H](C(c2ccccc2)c2ccccc2)NC(=O)[C@H](CCCNC(=N)N)NC(=O)[C@H](C(c2ccccc2)c2ccccc2)NC(=O)[C@H](CCCNC(=N)N)NC(=O)[C@H](C(c2ccccc2)c2ccccc2)NC1=O` [[(DipR)4(WR)]] (cyclo([Dip]R[Dip]R[Dip]R[Dip]RWR)), the MIC in assay [1] (ATCC 22019, 24 h) turned out to be 6.7 µM (≈ 12.5 µg/mL); in assay [4], 25 µM (≈ 46.5 µg/mL); in assay [5] it was 12.5 µM (≈ 23.3 µg/mL); in assay [6], 25 µM (≈ 46.5 µg/mL); in assay [2] (ATCC 60193, 24 h), 6.7 µM (≈ 12.5 µg/mL); in assay [7], 3.1 µM (≈ 5.77 µg/mL). This compound registered an MIC in assay [3] of 1.7 µM (≈ 3.16 µg/mL).
`N=C(N)NCCC[C@@H]1NC(=O)[C@H](Cc2c[nH]c3ccccc23)NC(=O)[C@H](CCCNC(=N)N)NC(=O)[C@H](Cc2c[nH]c3ccccc23)NC(=O)[C@H](CCCNC(=N)N)NC(=O)[C@H](C(c2ccccc2)c2ccccc2)NC(=O)[C@H](CCCNC(=N)N)NC(=O)[C@H](Cc2c[nH]c3ccccc23)NC(=O)[C@H](CCCNC(=N)N)NC(=O)[C@H](Cc2c[nH]c3ccccc23)NC1=O` [[(DipR)(WR)4]] (cyclo([Dip]RWRWRWRWR)): the MIC is listed as 7.1 µM (≈ 12.4 µg/mL) in assay [1] (ATCC 22019, 24 h); 25 µM (≈ 43.7 µg/mL) in assay [4]; 12.5 µM (≈ 21.9 µg/mL) in assay [5]; 12.5 µM (≈ 21.9 µg/mL) in assay [6]; 14.3 µM (≈ 25 µg/mL) in assay [2] (ATCC 60193, 24 h); 3.1 µM (≈ 5.42 µg/mL) in assay [7]. In assay [3], the MIC was found to be 1.8 µM (≈ 3.15 µg/mL).
